Results on 18 compounds are retold here after patent US20250195530A1, “POLQ INHIBITORS” (ASTRAZENECA AB, priority 2022, published 2025).

One experiment deals with DLD-1 cells. As to the kind of experiment: Inhibition of proliferation, DLD-1 BRCA2 wt control (Cell Titre Glo 3D). The following applies: mean; for IC50: Homo sapiens, DLD-1, DLD1 BRCA2 wt, read-out: POLQ PD Prolif Lumin DLD1 mean pIC50 (converted); for POLQ PD Prolif Lumin DLD1 mean pIC50: DLD1 BRCA2 wt. The class given is cell-based. An outline of the steps:
(§1)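 Cells are seeded in RPMI 1640 (phenol red free, 10% FBS, GlutaMAX) onto pre-dosed compound (10 μM to 0.51 nM, three-fold). Plates are incubated at 37 °C, and medium plus compound are refreshed on day 6. Viability is read by CellTiter-Glo 3D at day 7 (DLD-1) or day 12 (DLD-1 BRCA2−/−), and the IC50 is fitted.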

The test system of a further experiment is DLD-1 BRCA2−/− cells. As to the kind of experiment: Homologous recombination synthetic lethal inhibition of proliferation, DLD-1 BRCA2-/- (Cell Titre Glo 3D). The format is cell-based. The conditions noted are these: mean; for IC50: Homo sapiens, DLD-1, DLD-1 BRCA2 −/−, read-out: POLQ PD Prolif Lumin BRCA2 −/− mean pIC50 (converted); for POLQ PD Prolif Lumin BRCA2 −/− mean pIC50: DLD-1 BRCA2 −/−. Put shortly:
as §1

SMILES strings stand for the structures.

With `COc1ccc(Cl)cc1Cn1c(-c2cccc(OCCCOCC(=O)O)c2Cl)nc2c(OC3(C)CC3)ncnc21` [Example U30, 2-(3-(2-chloro-3-(9-(5-chloro-2-methoxybenzyl)-6-(1-methylcyclopropoxy)-9H-purin-8-yl)phenoxy)propoxy)acetic acid], the values for the IC50 in the experiment on DLD-1 cells and with DLD-1 BRCA2−/− cells were over 10000 nM and 20 nM, respectively.

With `COc1ccc(Cl)cc1Cn1c(-c2ccc(OCCC(C)(C)C(=O)O)cc2Cl)nc2c(OC3(C)CC3)ncnc21` [Example U31, 4-(3-chloro-4-(9-(5-chloro-2-methoxybenzyl)-6-(1-methylcyclopropoxy)-9H-purin-8-yl)phenoxy)-2,2-dimethylbutanoic acid], the IC50 in the experiment with DLD-1 cells was over 7940 nM; with DLD-1 BRCA2−/− cells it was 50.1 nM.

`COc1ccc(Cl)cc1Cn1c(-c2cccc(O[C@H]3CC[C@H](C(=O)O)CC3)c2Cl)nc2c(OC3(C)CC3)ncnc21` [Example U38, (1r,4r)-4-(2-chloro-3-(9-(5-chloro-2-methoxybenzyl)-6-(1-methylcyclopropoxy)-9H-purin-8-yl)phenoxy)cyclohexane-1-carboxylic acid]: the “POLQ PD Prolif Lumin DLD1 mean pIC50” value with DLD-1 cells amounted to 5.1. Besides, the “POLQ PD Prolif Lumin BRCA2 −/− mean pIC50” value in the experiment on DLD-1 BRCA2−/− cells is recorded as 7.5.

Regarding `CC1(Oc2ncnc3c2nc(-c2cc(F)cc(OCCC(=O)O)c2Cl)n3Cc2cccc(Cl)c2)CC1` [Example U39, 3-(2-chloro-3-(9-(3-chlorobenzyl)-6-(1-methylcyclopropoxy)-9H-purin-8-yl)-5-fluorophenoxy)propanoic acid], the IC50 in the experiment on DLD-1 cells is over 10000 nM; with DLD-1 BRCA2−/− cells, 12.6 nM.

As for `COc1ccc(Cl)cc1Cn1c(-c2ccc(O[C@H]3CC[C@@H](C(=O)O)CC3)cc2Cl)nc2c(OC3(C)CC3)ncnc21` [Example U40, (1s,4s)-4-(3-chloro-4-(9-(5-chloro-2-methoxybenzyl)-6-(1-methylcyclopropoxy)-9H-purin-8-yl)phenoxy)cyclohexane-1-carboxylic acid], the “POLQ PD Prolif Lumin DLD1 mean pIC50” value with DLD-1 cells is listed as under 5.1. Besides, the “POLQ PD Prolif Lumin BRCA2 −/− mean pIC50” value in the experiment on DLD-1 BRCA2−/− cells is 7.

For `COc1ccc(Cl)cc1Cn1c(-c2ccc(O[C@H]3CC[C@H](C(=O)O)CC3)cc2Cl)nc2c(OC3(C)CC3)ncnc21` [Example U43, (1r,4r)-4-(3-chloro-4-(9-(5-chloro-2-methoxybenzyl)-6-(1-methylcyclopropoxy)-9H-purin-8-yl)phenoxy)cyclohexane-1-carboxylic acid], the “POLQ PD Prolif Lumin DLD1 mean pIC50” value in the experiment on DLD-1 cells is reported as under 5.0. Moreover, the “POLQ PD Prolif Lumin BRCA2 −/− mean pIC50” value in the experiment with DLD-1 BRCA2−/− cells worked out at 7.2.

In the case of `COc1ccc(Cl)cc1Cn1c(-c2ccc(OCCCC(C)(C)C(=O)O)cc2Cl)nc2c(OC3(C)CC3)ncnc21` [Example U47, 5-(3-chloro-4-(9-(5-chloro-2-methoxybenzyl)-6-(1-methylcyclopropoxy)-9H-purin-8-yl)phenoxy)-2,2-dimethylpentanoic acid], the IC50 in the experiment with DLD-1 cells was 6310 nM; in the experiment with DLD-1 BRCA2−/− cells, 31.6 nM.

For the compound `COc1ccc(Cl)cc1Cn1c(-c2ccc(OCCOCC(=O)O)cc2Cl)nc2c(OC3(C)CC3)ncnc21` [Example U48, 2-(2-(3-chloro-4-(9-(5-chloro-2-methoxybenzyl)-6-(1-methylcyclopropoxy)-9H-purin-8-yl)phenoxy)ethoxy)acetic acid], the IC50 in the experiment with DLD-1 cells was over 10000 nM; with DLD-1 BRCA2−/− cells it was 631 nM.

As for `COc1ccc(Cl)cc1Cn1c(-c2cccc(O[C@H]3CC[C@@H](C(=O)O)CC3)c2Cl)nc2c(OC3(C)CC3)ncnc21` [Example U50, (1s,4s)-4-(2-chloro-3-(9-(5-chloro-2-methoxybenzyl)-6-(1-methylcyclopropoxy)-9H-purin-8-yl)phenoxy)cyclohexane-1-carboxylic acid], the “POLQ PD Prolif Lumin DLD1 mean pIC50” value in the experiment on DLD-1 cells was under 5.0. In the experiment on DLD-1 BRCA2−/− cells, the “POLQ PD Prolif Lumin BRCA2 −/− mean pIC50” value stood at 7.6.

On to `COc1ccc(Cl)cc1Cn1c(-c2cccc(O[C@H]3C[C@H](C(=O)O)C3)c2Cl)nc2c(OC3(C)CC3)ncnc21` [Example U51, (1r,3r)-3-(2-chloro-3-(9-(5-chloro-2-methoxybenzyl)-6-(1-methylcyclopropoxy)-9H-purin-8-yl)phenoxy)cyclobutane-1-carboxylic acid], for which, in the experiment with DLD-1 cells, the “POLQ PD Prolif Lumin DLD1 mean pIC50” value is listed as under 5.0. The “POLQ PD Prolif Lumin BRCA2 −/− mean pIC50” value in the experiment with DLD-1 BRCA2−/− cells came out at 7.2.

Regarding `COc1ccc(Cl)cc1Cn1c(-c2cccc(OCCOCC(=O)O)c2Cl)nc2c(OC3(C)CC3)ncnc21` [Example U52, 2-(2-(2-chloro-3-(9-(5-chloro-2-methoxybenzyl)-6-(1-methylcyclopropoxy)-9H-purin-8-yl)phenoxy)ethoxy)acetic acid], the IC50 is over 10000 nM in the experiment with DLD-1 cells and 50.1 nM in the experiment with DLD-1 BRCA2−/− cells.

On to `COc1ccc(Cl)cc1Cn1c(-c2ccc(OCCOC(C)(C)C(=O)O)cc2Cl)nc2c(OC3(C)CC3)ncnc21` [Example U54, 2-(2-(3-chloro-4-(9-(5-chloro-2-methoxybenzyl)-6-(1-methylcyclopropoxy)-9H-purin-8-yl)phenoxy)ethoxy)-2-methylpropanoic acid], for which the IC50 was over 10000 nM in the experiment with DLD-1 cells and 126 nM with DLD-1 BRCA2−/− cells.

As for `COc1ccc(Cl)cc1Cn1c(-c2cccc(CCCC(=O)O)c2Cl)nc2c(OC3(C)CC3)ncnc21` [Example U62, 4-(2-chloro-3-(9-(5-chloro-2-methoxybenzyl)-6-(1-methylcyclopropoxy)-9H-purin-8-yl)phenyl)butanoic acid], the IC50 was over 10000 nM in the experiment on DLD-1 cells and 50.1 nM in the experiment with DLD-1 BRCA2−/− cells.

On to `COc1ccc(Cl)cc1Cn1c(-c2cccc(CCC(=O)O)c2Cl)nc2c(OC3(C)CC3)ncnc21` [Example U64, 3-(2-chloro-3-(9-(5-chloro-2-methoxybenzyl)-6-(1-methylcyclopropoxy)-9H-purin-8-yl)phenyl)propanoic acid], for which the IC50 with DLD-1 cells was over 10000 nM; in the experiment on DLD-1 BRCA2−/− cells, 100 nM.

Consider `CC1(Oc2ncnc3c2nc(-c2ccc(F)c(OCCC(=O)O)c2Cl)n3Cc2cccc(Cl)c2)CC1` [Example U65, 3-(2-chloro-3-(9-(3-chlorobenzyl)-6-(1-methylcyclopropoxy)-9H-purin-8-yl)-6-fluorophenoxy)propanoic acid], for which the IC50 in the experiment with DLD-1 cells is over 10000 nM; with DLD-1 BRCA2−/− cells, 251 nM.

On to `COc1ccc(F)cc1Cn1c(-c2ccc(OCC[C@@H](C)C(=O)O)cc2Cl)nc2c(OC3(C)CC3)ncnc21` [Example U67, (R)-4-(3-chloro-4-(9-(5-fluoro-2-methoxybenzyl)-6-(1-methylcyclopropoxy)-9H-purin-8-yl)phenoxy)-2-methylbutanoic acid], for which the IC50 is over 10000 nM in the experiment on DLD-1 cells and 50.1 nM with DLD-1 BRCA2−/− cells.

`COc1ccc(F)cc1Cn1c(-c2ccc(OCC[C@H](C)C(=O)O)cc2Cl)nc2c(OC3(C)CC3)ncnc21` [Example U68, (S)-4-(3-chloro-4-(9-(5-fluoro-2-methoxybenzyl)-6-(1-methylcyclopropoxy)-9H-purin-8-yl)phenoxy)-2-methylbutanoic acid]: the IC50 is over 10000 nM in the experiment on DLD-1 cells and 39.8 nM with DLD-1 BRCA2−/− cells.

On to `COc1ccc(F)cc1Cn1c(-c2cccc(O[C@H]3CC[C@H](C(=O)O)CC3)c2Cl)nc2c(OC3(C)CC3)ncnc21` [Example U69, (1r,4r)-4-(2-chloro-3-(9-(5-fluoro-2-methoxybenzyl)-6-(1-methylcyclopropoxy)-9H-purin-8-yl)phenoxy)cyclohexane-1-carboxylic acid], for which the “POLQ PD Prolif Lumin DLD1 mean pIC50” value in the experiment on DLD-1 cells was under 5.0. In addition, the “POLQ PD Prolif Lumin BRCA2 −/− mean pIC50” value in the experiment with DLD-1 BRCA2−/− cells was determined as 7.4.
